# What was measured:
# human CGRP receptor = molecular target: T1, human CGRP receptor (Homo sapiens, UniProt O60894+Q16602); test: cAMP functional assay (HTRF) in SK-N-MC cells; type: cell-based; settings: read-out: pKb average (converted)
# T1 construct: The human neuroblastoma cell line SK-N-MC endogenously expressing the human CGRP receptor; endogenous in cells; host or cells: SK-N-MC human neuroblastoma cells
# Description: cAMP production following receptor activation was determined using the Homogeneous Time-Resolved Fluorescence (HTRF) cAMP dynamic-2 assay (Cisbio, France). The human neuroblastoma cell line SK-N-MC endogenously expressing the human CGRP receptor was seeded at a density of 12,500 cells/well in solid walled 96 well half area plates (Costar, Catalog Number 3688, Corning Life Sciences, Germany). After 16 h incubation at 37° C. media was removed and cells were incubated at 37° C. for 30 min in serum free media containing 500 μM IBMX (Tocris, Abingdon, UK, Catalog Number 2845) and increasing concentrations of test antagonist. Following this cells were challenged with an EC80 concentration of human CGRP (0.3 nM) for a further 30 min at 37° C. and then cAMP production was determined as manufacturer's instructions before plates were read on a PheraStar fluorescence plate reader (BMG LabTech, Germany). IC50 values were derived from the inhibition curve. The pIC50 values (where pIC50=−log10 IC50) were converted to a functional pKb value using a modified Cheng-Prussoff equation where Kd=agonist EC50 and L hot=agonist challenge concentration. The pKb values of certain compounds of the invention are detailed in Table 3.
# [1] = Thermodynamic solubility profiling; type: physicochemical; settings: 24 h at rt
# Description: A 50 mM DMSO stock solution of test compound was prepared, and from this, a working solution of 1 mM was prepared by dilution with DMSO. The UV absorbance of working solution was scanned from 220 nm to 1000 nm to identify the wavelength maxima of test compound. The 1 mM working solution was then serially diluted in DMSO to different concentrations to determine linearity/calibration curve. […] The resulting solution was then kept on a RotoSpin shaker at 50 rpm for 24 h at rt before the solution was filtered using 0.45 micron PVDF injector filters in order to remove the insoluble fraction of the compound. Subsequently, 150 uL of the filtrate is taken for quantification using a UV spectrophotometer, acquiring the optical density of standard solutions and test compound at the same wavelength maxima. From the optical density of test compound the thermodynamic solubility is calculated using the linearity/calibration curve and expressed as micromolar (μM). Solubility profiles of certain compounds of the invention are detailed in Table 6.
# [2] = Pharmacokinetic profiling in rat; type: in vivo, male Sprague Dawley rats; settings: male, Sprague Dawley, plasma, inhaled or intranasal
# Description: Prior to IN dosing rats were anaesthetised with an intramuscular dose of 25-30 mg/kg ketamine cocktail (ketamine, xylazine hydrochloride and acepromazine maleate in saline) and the dose is introduced over 20-30 s via a polyethylene PE-10 tube inserted approximately 5 mm into the nasal cavity of the rat.
# (§1) Following dosing by the routes above blood samples were taken at several time points (typically pre-dose, 0.083, 0.25, 0.5 1, 2, 4, 8 and 24 h) via serial tail vein bleeds (rat) or cephalic or saphenous vein (monkey) from the animal and centrifuged to separate plasma for analysis by LC/MS/MS assay. WinNonlin v6.2 statistics software (Pharsight Corporation, California, USA) was used to generate pharmacokinetic parameters using the non-compartmental model.
# [3] = Pharmacokinetic profiling in cynomolgus monkey; type: in vivo, male Cynomolgus Monkeys; settings: male, plasma, acidified saline
# Description: as §1
# [4] = molecular target: T2, Human CGRP receptors (consisting of CRLR and RAMP1) (Homo sapiens, UniProt O60894+Q16602); test: Radioligand binding assay (3H-telcagepant displacement); settings: 0.5 nM 3H-telcagepant, Sf21 cell membranes, Ki by Cheng-Prussoff; read-out: pKi average (converted)
# T2 construct: made in house; host or cells: Sf21 insect cells (baculovirus, pFastBac dual vector); membrane homogenates
# T2 sequence (Q16602 23-461): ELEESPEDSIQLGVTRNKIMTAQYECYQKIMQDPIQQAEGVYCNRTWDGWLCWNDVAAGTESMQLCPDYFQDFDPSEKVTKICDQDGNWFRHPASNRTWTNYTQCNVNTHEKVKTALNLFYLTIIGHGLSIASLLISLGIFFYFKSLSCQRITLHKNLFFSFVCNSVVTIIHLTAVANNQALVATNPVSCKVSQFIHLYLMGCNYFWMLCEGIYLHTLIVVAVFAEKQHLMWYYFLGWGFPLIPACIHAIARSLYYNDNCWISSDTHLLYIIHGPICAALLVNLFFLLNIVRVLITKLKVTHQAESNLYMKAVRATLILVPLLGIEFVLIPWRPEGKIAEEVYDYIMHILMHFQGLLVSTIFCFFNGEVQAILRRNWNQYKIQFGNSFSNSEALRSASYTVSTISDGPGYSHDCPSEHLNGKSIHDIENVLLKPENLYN
# T2 sequence (O60894 27-148): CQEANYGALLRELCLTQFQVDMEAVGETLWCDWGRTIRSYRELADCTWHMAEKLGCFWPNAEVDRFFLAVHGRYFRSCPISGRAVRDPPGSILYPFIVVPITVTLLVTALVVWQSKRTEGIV
# Description: Human Calcitonin Receptor Like Receptor (CRLR) and human RAMP1 were cloned into Invitrogen's (ThermoFisher Scientific, UK) pFastBac dual expression vector. Transposition of CRLR/RAMP1 DNA was performed using Invitrogen's Bac-to-Bac Baculovirus Expression Systems. P0 baculovirus was generated by transfecting SF9 cells with bacmid DNA using Cellfectin® II transfection reagent (ThermoFisher Scientific, UK, catalog number 10362-100). Following P0 generation P1 virus was then generated ready for large scale infection and membrane preparation. Sf21 cells were grown in expression medium ESF921 (Expression Systems, USA, catalog number 96-001-01) supplemented with 10% heat-inactivated FBS and 1% Pen/Strep and were infected at a cell density of 2.5×10^6 cells/mL and an MOI of 2. Expression was carried out over 48 h in a shaking incubator set at 27° C. The cell culture was centrifuged at 2,500 rcf for 10 min at 4° C. The pellets were resuspended in cold PBS supplemented with Roche's Complete EDTA-free protease inhibitor cocktail tablets (Roche Applied Sciences, catalog number 05056489001), 1 mM PMSF and 1 mM EDTA. The resuspended cell paste was then centrifuged at 3,273 rcf for 12 min at 4° C. The supernatant was discarded and the pellet frozen at −80° C. The cell pellet from a 4 L culture was resuspended in buffer containing 50 mM Hepes pH 7.5, 150 mM NaCl, 8 Roche EDTA-free protease inhibitor cocktail tablets and 1 mM PMSF. The suspension was left stirring at rt for 1 h and then homogenised for 90 s at 9,500 rpm using a VDI 25 (VWR, USA) homogeniser. The cells were then lysed using a Microfluidizer processor M-110L Pneumatic (Microfluidics, USA). After lysis, the mixture was homogenised for 90 s at 9,500 rpm and then centrifuged at 335 rcf for 10 min. The supernatant was then further ultra-centrifuged at 42,000 rpm for 90 min. […]
# Human CGRP receptors (consisting of CRLR and RAMP1) expressed in insect Sf21 cell membrane homogenates were re-suspended in the binding buffer (10 mM HEPES, pH 7.4, 5 mM MgCl2, 0.2% BSA) to a final assay concentration of […]. Saturation isotherms were determined by the addition of various concentrations of ^3H-telcagepant (Ho et al, The Lancet, 2008, 372, 2115) (in a total reaction volume of 250 μL) for 60 min at rt. […] Non-specific binding (NSB) was measured in the presence of 10 nM MK-3207 hydrochloride (CAS No. 957116-20-0). Radioactivity on the filter was counted (1 min) on a microbeta counter after addition of 50 μL of scintillation fluid. […] IC50 values were derived from the inhibition curve and the affinity constant (Ki) values were calculated using the Cheng-Prussoff equation (Cheng et al, Biochem. Pharmacol. 1973, 22, 3099-3108). […]
# [5] = aqueous buffer, thermodynamic from solid, pH 6 (Sodium Phosphate Buffer)
# [6] = aqueous buffer, thermodynamic from solid, pH 7.4 (PBS buffer)
# T1 sequence (Q16602 23-461): as the sequence (Q16602 23-461) above
# T1 sequence (O60894 27-148): as the sequence (O60894 27-148) above
Kb (human CGRP receptor) [nM],"solubility thermodynamic at 24 h [1, 5] [µM]","solubility thermodynamic at 24 h [1, 6] [µM]",bioavailability [2] [%],"clearance ([3]; Cynomolgus monkey iv, 1 mg/kg) [mL/min/kg]","bioavailability ([3]; Cynomolgus monkey sc, 0.5 mg/kg) [%]",Ki [4] [nM],solubility thermodynamic at 24 h ([1]; pH 6 (Sodium Phosphate Buffer)) [µM],solubility thermodynamic at 24 h ([1]; pH 7.4 (PBS buffer)) [µM],Compound
0.251,1030,,,,,,,,"Cc1cc(C[C@@H](NC(=O)N2CCC(n3c(=O)[nH]c4ncccc43)CC2)C(=O)N2CCC3(CCN(C4CCNCC4)CC3)C2)cc2cn[nH]c12 [Example 1, N-{(2R)-3-(7-methyl-1H-indazol-5-yl)-1-oxo-1-[8-(piperidin-4-yl)-2,8-diazaspiro[4.5]dec-2-yl]propan-2-yl}-4-(2-oxo-2,3-dihydro-1H-imidazo[4,5-b]pyridin-1-yl)piperidine-1-carboxamide]"
1.26,1290,800,20,8,100,,,,"CN[C@H](C)C(=O)N1CCC2(CC1)CCN(C(=O)[C@@H](Cc1cc(C)c3[nH]ncc3c1)NC(=O)N1CCC(c3cc4ccccc4[nH]c3=O)CC1)C2 [Example 2, N-[(2R)-1-[8-(N-methyl-D-alanyl)-2,8-diazaspiro[4.5]dec-2-yl]-3-(7-methyl-1H-indazol-5-yl)-1-oxopropan-2-yl]-4-(2-oxo-1,2-dihydroquinolin-3-yl)piperidine-1-carboxamide]"
0.631,1430,1550,,,,0.0794,,,"CN[C@H](C)C(=O)N1CCC2(CC1)CCN(C(=O)[C@@H](Cc1cc(C)c3[nH]ncc3c1)NC(=O)N1CCC(n3c(=O)[nH]c4ncccc43)CC1)C2 [Example 3, N-[(2R)-1-[8-(N-methyl-D-alanyl)-2,8-diazaspiro[4.5]dec-2-yl]-3-(7-methyl-1H-indazol-5-yl)-1-oxopropan-2-yl]-4-(2-oxo-2,3-dihydro-1H-imidazo[4,5-b]pyridin-1-yl)piperidine-1-carboxamide]"
0.794,1350,1150,,,,0.0794,,,"Cc1cc(C[C@@H](NC(=O)N2CCC(N3Cc4ccccc4NC3=O)CC2)C(=O)N2CCC3(CCN(C4CCNCC4)CC3)C2)cc2cn[nH]c12 [Example 4, N-{(2R)-3-(7-methyl-1H-indazol-5-yl)-1-oxo-1-[8-(piperidin-4-yl)-2,8-diazaspiro[4.5]dec-2-yl]propan-2-yl}-4-(2-oxo-1,4-dihydroquinazolin-3(2H)-yl)piperidine-1-carboxamide]"
0.501,1580,1460,,,,0.1,,,"CN[C@H](C)C(=O)N1CCC2(CC1)CCN(C(=O)[C@@H](Cc1cc(C)c3[nH]ncc3c1)NC(=O)N1CCC3(CC1)OC(=O)Nc1ncccc13)C2 [Example 5, N-[(2R)-1-[8-(N-methyl-D-alanyl)-2,8-diazaspiro[4.5]dec-2-yl]-3-(7-methyl-1H-indazol-5-yl)-1-oxopropan-2-yl]-2′-oxo-1′,2′-dihydro-1H-spiro[piperidine-4,4′-pyrido[2,3-d][1,3]oxazine]-1-carboxamide]"
0.631,1500,1570,,,,,,,"CN[C@H](C)C(=O)N1CCC2(CC1)CCN(C(=O)[C@@H](Cc1cc(C)c3[nH]ncc3c1)NC(=O)N1CCC(N3Cc4ccccc4NC3=O)CC1)C2 [Example 6, N-[(2R)-1-[8-(N-methyl-D-alanyl)-2,8-diazaspiro[4.5]dec-2-yl]-3-(7-methyl-1H-indazol-5-yl)-1-oxopropan-2-yl]-4-(2-oxo-1,4-dihydroquinazolin-3(2H)-yl)piperidine-1-carboxamide]"
0.398,3630,2160,,,,0.0501,,,"Cc1cc(C[C@@H](NC(=O)N2CCC(n3c(=O)[nH]c4ncccc43)CC2)C(=O)N2CCC3(CCN(c4ccncc4)CC3)C2)cc2cn[nH]c12 [Example 7, N-{(2R)-3-(7-methyl-1H-indazol-5-yl)-1-oxo-1-[8-(pyridin-4-yl)-2,8-diazaspiro[4.5]dec-2-yl]propan-2-yl}-4-(2-oxo-2,3-dihydro-1H-imidazo[4,5-b]pyridin-1-yl)piperidine-1-carboxamide]"
,,,,,,,150,431,"NCCCC[C@H](NC(=O)[C@@H](Cc1cc(Br)c(O)c(Br)c1)NC(=O)N1CCC(N2Cc3ccccc3NC2=O)CC1)C(=O)N1CCN(c2ccncc2)CC1 [olcegepant, reference compound]"

# From US10259812B2, “CGRP receptor antagonists” (Heptares Therapeutics Limited, priority 2015, dated 2019)
